Measured values from article PMC7662280 (Molecules, 2020).
Where “and” joins values, the source holds several entries; their conditions need not be identical. Identical values can stand only once. Like-named read-outs stand apart in the source and are kept apart here.

Experiments:
[1] = Experimental lipophilicity as RM values by RPTLC; format: physicochemical; conditions: silica gel impregnated with liquid paraffin, methanol/water 77/23, 24 °C
[2] = Inhibition of linoleic acid peroxidation induced by AAPH; conditions: anti-lipid peroxidation of linoleic acid, 100 μM
[3] = biological target: T1, soybean lipoxygenase (isozyme LOX-1) (Glycine max, UniProt P08170); assay: Soybean lipoxygenase inhibition study; format: biochemical; conditions: for inhibition at 100 µM: read-out: LOX (% Inhibition at 100 μM) ± SEM, soybean lipoxygenase, 100 μM
T1 construct: purchased Sigma Chemical, Co. (St. Louis, MO, USA)
T1 sequence (P08170 1-839): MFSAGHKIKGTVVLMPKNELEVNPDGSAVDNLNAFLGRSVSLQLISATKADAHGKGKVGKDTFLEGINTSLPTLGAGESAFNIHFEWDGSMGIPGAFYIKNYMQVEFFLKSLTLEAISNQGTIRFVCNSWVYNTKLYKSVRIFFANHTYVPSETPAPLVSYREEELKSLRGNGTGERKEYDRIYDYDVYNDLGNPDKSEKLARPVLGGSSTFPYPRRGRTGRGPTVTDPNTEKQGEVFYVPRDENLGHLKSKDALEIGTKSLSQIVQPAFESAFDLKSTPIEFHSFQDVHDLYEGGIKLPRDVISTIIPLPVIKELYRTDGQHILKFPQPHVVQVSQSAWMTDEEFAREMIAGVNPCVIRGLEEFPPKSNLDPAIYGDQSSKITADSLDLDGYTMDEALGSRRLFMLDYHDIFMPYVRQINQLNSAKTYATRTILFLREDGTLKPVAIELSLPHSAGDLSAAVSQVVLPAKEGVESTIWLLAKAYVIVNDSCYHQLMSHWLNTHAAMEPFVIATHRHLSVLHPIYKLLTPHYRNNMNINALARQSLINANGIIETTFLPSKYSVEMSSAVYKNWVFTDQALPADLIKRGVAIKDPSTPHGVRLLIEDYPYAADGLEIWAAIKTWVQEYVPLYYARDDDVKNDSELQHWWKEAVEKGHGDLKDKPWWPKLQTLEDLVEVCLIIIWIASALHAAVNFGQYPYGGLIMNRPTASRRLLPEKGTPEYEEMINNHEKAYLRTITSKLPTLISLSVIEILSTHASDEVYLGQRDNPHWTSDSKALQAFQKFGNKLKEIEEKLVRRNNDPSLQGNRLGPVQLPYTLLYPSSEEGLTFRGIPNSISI

eel AChE = biological target: T2, eel AChE (Electrophorus electricus, UniProt O42275); assay: biochemical; conditions: for inhibition at 100 µM: n.a. = no activity under the experimental conditions, read-out: AChE (% Inhibition at 100 μM) ± SEM; for IC50: acetylthiocholine substrate, read-out: AChE IC50 (μM) ± SEM
T2 construct: purchased Sigma-Aldrich Type VI-S
T2 sequence (O42275 24-633): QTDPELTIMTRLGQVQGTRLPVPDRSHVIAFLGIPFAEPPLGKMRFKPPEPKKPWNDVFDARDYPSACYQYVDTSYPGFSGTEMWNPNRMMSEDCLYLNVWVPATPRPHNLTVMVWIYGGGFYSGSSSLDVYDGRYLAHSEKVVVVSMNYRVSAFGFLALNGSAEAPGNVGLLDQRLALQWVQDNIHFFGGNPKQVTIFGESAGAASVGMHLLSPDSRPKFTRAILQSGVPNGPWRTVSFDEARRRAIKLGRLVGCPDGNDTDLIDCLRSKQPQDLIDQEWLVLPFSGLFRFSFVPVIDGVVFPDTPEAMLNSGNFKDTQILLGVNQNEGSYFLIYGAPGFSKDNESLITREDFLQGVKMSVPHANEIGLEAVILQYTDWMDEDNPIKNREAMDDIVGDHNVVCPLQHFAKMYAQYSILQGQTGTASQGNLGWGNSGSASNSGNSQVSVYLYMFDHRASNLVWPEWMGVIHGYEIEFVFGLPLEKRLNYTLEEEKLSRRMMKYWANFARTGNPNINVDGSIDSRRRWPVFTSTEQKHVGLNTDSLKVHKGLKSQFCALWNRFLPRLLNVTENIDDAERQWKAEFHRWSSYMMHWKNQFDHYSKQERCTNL

[4] = biological target: T1, soybean lipoxygenase (isozyme LOX-1); conditions: previously published, cited from earlier work; for IC50: read-out: LOX IC50 (μM) ± SEM
bovine COX-2 = biological target: T3, bovine COX-2 (Bos taurus, UniProt O62698); assay: biochemical; format: biochemical
T3 sequence (O62698 18-604): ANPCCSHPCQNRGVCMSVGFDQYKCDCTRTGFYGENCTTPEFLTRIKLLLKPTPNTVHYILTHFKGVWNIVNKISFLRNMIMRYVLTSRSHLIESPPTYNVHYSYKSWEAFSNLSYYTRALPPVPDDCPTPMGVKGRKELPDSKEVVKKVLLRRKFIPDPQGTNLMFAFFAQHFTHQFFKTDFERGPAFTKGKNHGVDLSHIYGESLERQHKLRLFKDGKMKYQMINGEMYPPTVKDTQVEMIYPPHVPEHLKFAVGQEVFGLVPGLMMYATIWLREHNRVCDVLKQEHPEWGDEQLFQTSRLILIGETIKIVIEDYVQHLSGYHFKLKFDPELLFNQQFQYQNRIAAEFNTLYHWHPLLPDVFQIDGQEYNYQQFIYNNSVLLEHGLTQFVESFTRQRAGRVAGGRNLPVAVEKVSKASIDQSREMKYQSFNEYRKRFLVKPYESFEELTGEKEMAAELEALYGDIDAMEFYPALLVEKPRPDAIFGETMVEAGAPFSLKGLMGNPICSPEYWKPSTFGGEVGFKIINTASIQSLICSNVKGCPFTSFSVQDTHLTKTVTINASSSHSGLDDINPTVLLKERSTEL

[5] = soybean lipoxygenase, sodium linoleate substrate, read-out: LOX IC50 (μM) ± SEM

With O=C1/C(=C/c2cccc3ccccc23)CN(C(=O)/C=C/c2cccc3ccccc23)C/C1=C\c1cccc2ccccc12 [3c, (3E,5E)-1-((E)-3-(naphthalen-1-yl)acryloyl)-3,5-bis(naphthalen-1-ylmethylene)piperidin-4-one] the “RM ± S.D.” value [1] was −0.658 and −0.658 ± 0.061, the “AAPH Inhibition (%, at 100 μΜ)” value [2] was 88 ± 2.0% and the IC50 [3, 5] was 37.5 µM. The inhibition at 100 µM (eel AChE) was 29%.

In the case of O=C(O)/C=C/c1cccc2ccccc12 [2b], the “RM ± S.D.” value [1] is reported as −0.576 ± 0.077, the “AAPH Inhibition (%, at 100 μΜ)” value [2] is reported as 78 ± 0.7% and the IC50 [3] is reported as 27.5 µM.

For O=C1/C(=C/c2cccs2)CNC/C1=C\c1cccs1 [1b, (3E,5E)-3,5-bis(thiophen-2-ylmethylene)piperidin-4-one], the IC50 [4] is listed as 330 µM.

With O=C1/C(=C/c2ccc(F)cc2)CN(C(=O)/C=C/c2cccc3ccccc23)C/C1=C\c1ccc(F)cc1 [3f, (3E,5E)-3,5-bis(4-fluorobenzylidene)-1-((E)-3-(naphthalen-1-yl)acryloyl)piperidin-4-one] the “RM ± S.D.” value [1] was 0.564 ± 0.045, the “AAPH Inhibition (%, at 100 μΜ)” value [2] was 90 ± 2.4% and the IC50 [3, 5] was 55 µM. For the same compound, the inhibition at 100 µM (eel AChE) was 24%.

For “(3E,5E)-3,5-bis((1H-imidazol-2-yl)methylene)piperidin-4-one [1f]”, the “LOX (% Inhibition at 100 μM) ± SEM” value [4] is given as 36% ± 0.9.

In the case of O=C1/C(=C/c2cccc3ccccc23)CC/C1=C\c1cccc2ccccc12 [1k, (2E,5E)-2,5-bis(naphthalen-1-ylmethylene)cyclopentanone], the “RM ± S.D.” value [1] is reported as 0.872 ± 0.039, the “AAPH Inhibition (%, at 100 μΜ)” value [2] is reported as 100 ± 2.2% and the IC50 [3, 5] is reported as 14 µM. The inhibition at 100 µM (eel AChE) was 36%.

In the case of O=C1/C(=C/c2cccc3ccccc23)CN(C(=O)C=Cc2ccccc2)C/C1=C\c1cccc2ccccc12 [3a, (3E,5E)-1-cinnamoyl-3,5-bis(naphthalen-1-ylmethylene)piperidin-4-one], the “RM ± S.D.” value [1] is reported as 0.599 ± 0.024, the “AAPH Inhibition (%, at 100 μΜ)” value [2] is reported as 91 ± 1.9% and the IC50 [3, 5] is reported as 50 µM. The IC50 (eel AChE) was 85 µM.

For O=C1/C(=C/c2c[nH]c3ccccc23)CNC/C1=C\c1c[nH]c2ccccc12 [1c, (3E,5E)-3,5-bis((1H-indol-3-yl)methylene)piperidin-4-one], the IC50 [4] is listed as 380 µM.

With O=C1/C(=C/c2ccccc2)CN(C(=O)/C=C/c2cccc3ccccc23)C/C1=C\c1ccccc1 [3b, (3E,5E)-3,5-dibenzylidene-1-((E)-3-(naphthalen-1-yl)acryloyl)piperidin-4-one] the “RM ± S.D.” value [1] was 0.509 ± 0.062, the “AAPH Inhibition (%, at 100 μΜ)” value [2] was 90 ± 2.8% and the IC50 [3, 5] was 55 µM. For the same compound, the inhibition at 100 µM (eel AChE) was 17%.

With O=C1/C(=C/c2cccc3ccccc23)CN(C(=O)/C=C/c2ccc(O)c(O)c2)C/C1=C\c1cccc2ccccc12 [3h, (3E,5E)-1-((E)-3-(3,4-dihydroxyphenyl)acryloyl)-3,5-bis(naphthalen-1-ylmethylene)piperidin-4-one] the “RM ± S.D.” value [1] was −0.657 and −0.657 ± 0.013, the “AAPH Inhibition (%, at 100 μΜ)” value [2] was 93 ± 2.2% and the IC50 [3, 5] was 34 µM. The inhibition at 100 µM (eel AChE) was 14 to 34%.

For O=C1/C(=C/c2cc3ccccc3o2)CNC/C1=C\c1cc2ccccc2o1 [1q, (3E,5E)-3,5-bis(benzofuran-2-ylmethylene)piperidin-4-one], the “RM ± S.D.” value [1] was −0.019 ± 0.143, the “AAPH Inhibition (%, at 100 μΜ)” value [2] was 13 ± 0.2% and the inhibition at 100 µM [3] was 3%. The inhibition at 100 µM (eel AChE) was 16.5%.

For O=C(O)/C=C/c1ccc(O)c(O)c1 [2c, caffeic acid], the “COX-2 (% Inhibition at 100 μM) ± SEM” value (bovine COX-2; bovine COX-2, 100 μM, n.a. = no activity under the experimental conditions) was “presented anti-COX-2 activity”, the IC50 (bovine COX-2; bovine COX-2, read-out: COX-2 IC50 (μM) ± SEM) was 57.5 µM and the “AAPH Inhibition (%, at 100 μΜ)” value [2] was 80 ± 2.2%.

With O=C1/C(=C/c2ccccc2)COC/C1=C\c1ccccc1 [1l, (3E,5E)-3,5-dibenzylidenedihydro-2H-pyran-4(3H)-one] the “AAPH Inhibition (%, at 100 μΜ)” value [2] was 42 ± 1.5%, the inhibition at 100 µM [3] was less than 10% and the inhibition at 100 µM (eel AChE) was 25%.

With O=C(O)/C=C/c1ccccc1 [2a] the “RM ± S.D.” value [1] was −0.485 ± 0.044, the “AAPH Inhibition (%, at 100 μΜ)” value [2] was 78 ±1.6% and the inhibition at 100 µM (eel AChE) was 4.6%.

In the case of O=C1/C(=C/c2cccc3ccccc23)COC/C1=C\c1cccc2ccccc12 [1m, (3E,5E)-3,5-bis(naphthalen-1-ylmethylene)dihydro-2H-pyran-4(3H)-one], the “RM ± S.D.” value [1] is reported as 0.577 ± 0.027, the “AAPH Inhibition (%, at 100 μΜ)” value [2] is reported as 100 ± 2.8% and the IC50 [3, 5] is reported as 50.5 µM. For the same compound, the inhibition at 100 µM (eel AChE) was 32%.

In the case of O=C1/C(=C/c2ccc3[nH]ccc3c2)CNC/C1=C\c1ccc2[nH]ccc2c1 [1d, (3E,5E)-3,5-bis((1H-indol-5-yl)methylene)piperidin-4-one], the IC50 [4] is given as 410 µM.

With COc1cc(/C=C/C(=O)CC(=O)/C=C/c2ccc(O)c(OC)c2)ccc1O [Curcumin, reference compound] the “RM ± S.D.” value [1] was 0.175 ± 0.029 and the inhibition at 100 µM [3] was 38%.

With O=C1/C(=C/c2cccs2)CN(C(=O)/C=C/c2cccc3ccccc23)C/C1=C\c1cccs1 [3e, (3E,5E)-1-((E)-3-(naphthalen-1-yl)acryloyl)-3,5-bis(thiophen-2-ylmethylene)piperidin-4-one] the “RM ± S.D.” value [1] was 0.514 ± 0.039, the inhibition at 100 µM (bovine COX-2; bovine COX-2, 100 μM, n.a. = no activity under the experimental conditions, read-out: COX-2 (% Inhibition at 100 μM) ± SEM) was 19% and the “AAPH Inhibition (%, at 100 μΜ)” value [2] was 91 ± 2.5%. For the same compound, the IC50 [3, 5] was 52 µM and the IC50 (eel AChE) was 70 µM.

With O=C1/C(=C/c2cccc3ccccc23)CSC/C1=C\c1cccc2ccccc12 [1n, (3Z,5Z)-3,5-bis(naphthalen-1-ylmethylene)dihydro-2H-thiopyran-4(3H)-one] the “RM ± S.D.” value [1] was 0.131 ± 0.142, the “AAPH Inhibition (%, at 100 μΜ)” value [2] was 100 ± 2.5% and the IC50 [3, 5] was 57.5 µM. The inhibition at 100 µM (eel AChE) was 18%.

For O=C1/C(=C/c2ccc(F)cc2)CN(C(=O)C=Cc2ccccc2)C/C1=C\c1ccc(F)cc1 [3d, (3E,5E)-1-cinnamoyl-3,5-bis(4-fluorobenzylidene)piperidin-4-one], the “RM ± S.D.” value [1] was 0.237 ± 0.06, the “AAPH Inhibition (%, at 100 μΜ)” value [2] was 84 ± 1.7% and the IC50 [3, 5] was 63.5 µM. For the same compound, the inhibition at 100 µM (eel AChE) was 31%.

With Cc1c(C)c2c(c(C)c1O)CCC(C)(C(=O)O)O2 (stereo not shown) [Trolox, reference compound] the “AAPH Inhibition (%, at 100 μΜ)” value [2] was 92 ± 2.1%.

In the case of O=C1/C(=C/c2ccccc2)CNC/C1=C\c1ccccc1 [1g, (3E,5E)-3,5-dibenzylidenepiperidin-4-one], the “LOX (% Inhibition at 100 μM) ± SEM” value [4] is given as 8% ± 0.2.

In the case of O=C1/C(=C/c2ccccc2)CN(C(=O)C=Cc2ccccc2)C/C1=C\c1ccccc1 [3g, (3E,5E)-3,5-dibenzylidene-1-cinnamoylpiperidin-4-one], the “RM ± S.D.” value [1] is reported as 0.235 ± 0.039, the “AAPH Inhibition (%, at 100 μΜ)” value [2] is reported as 53 ± 1.6% and the IC50 [3] is reported as 82 µM. For the same compound, the IC50 (eel AChE) was 100 µM.

In the case of O=C1/C(=C/c2cccc3ccccc23)CNC/C1=C\c1cccc2ccccc12 [1a, (3E,5E)-3,5-bis(naphthalen-1-ylmethylene)piperidin-4-one], the IC50 [4] is listed as 37 µM.

With S=C1/C(=C/c2ccccc2)CNC/C1=C\c1ccccc1 [1o, (3E,5E)-3,5-dibenzylidenepiperidine-4-thione] the “RM ± S.D.” value [1] was −0.848 ± 0.19, the “AAPH Inhibition (%, at 100 μΜ)” value [2] was 8 ± 0.01% and the inhibition at 100 µM [3] was less than 10%. For the same compound, the IC50 [3, 5] was 10 µM.

With O=C1/C(=C/c2ccc(F)cc2)CNC/C1=C\c1ccc(F)cc1 [1j, (3E,5E)-3,5-bis(4-fluorobenzylidene)piperidin-4-one] the “AAPH Inhibition (%, at 100 μΜ)” value [2] was 36.2 ± 1.8%.

For S=C1/C(=C/c2cccc3ccccc23)CNC/C1=C\c1cccc2ccccc12 [1p, (3E,5E)-3,5-bis(naphthalen-1-ylmethylene)piperidine-4-thione], the “RM ± S.D.” value [1] was −0.679 ± 0.035, the “AAPH Inhibition (%, at 100 μΜ)” value [2] was 100 ± 3.3% and the IC50 [3, 5] was 35 µM. The inhibition at 100 µM (eel AChE) was 26.6%.
